Source: patent US6667387B1, “HCV core peptides” (priority 1992, dated 2003)
Ends that are not written are not given here.

Key:
[1] = ELISA with seronegative / negative control sera (specificity); assay type: binding, human
In short: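 Specificity readout is OD at 450 nm (HRP goat anti-human Ig, TMB/H2O2, sulfuric acid stop), with ≥0.250 counted positive. Seronegative donor sera (typically 1:100, 1 h, 37° C) were applied to casein-blocked wells coated with peptide directly or via streptavidin capture of biotinylated peptide.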

[2] = tested on: antibodies in sera from HCV-seropositive donors; assay: ELISA with HCV antibody-positive sera (biotinylated peptides on streptavidin- or avidin-coated plates, unbiotinylated peptides coated directly); assay type: binding, human
In short: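 Peptides coated either directly at 2–5 or 3 μg/ml in carbonate buffer pH 9.6, or biotinylated at 1 μg/ml on streptavidin-coated wells (3 μg/ml). Plates casein-blocked, then human sera (1:100 or 1:20) incubated 1 h at 37° C. Bound antibody detected with HRP anti-human Ig/TMB, read as OD450.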

PQRKTKRNTNRRPQDVKFPG
optical density (450 nm) ([1]; Table 4C, negative serum): 0.047
optical density (450 nm) ([1]; Table 5, sample 1747 (negative), peptide concentration 0.01 micrograms per milliliter, listed as Unbiotinylated HCV peptide II): 0.041
optical density (450 nm) ([1]; Table 5, sample 1747 (negative), peptide concentration 0.03 micrograms per milliliter, listed as Unbiotinylated HCV peptide II): 0.043
optical density (450 nm) ([1]; Table 5, sample 1747 (negative), peptide concentration 0.1 micrograms per milliliter, listed as Unbiotinylated HCV peptide II): 0.044
optical density (450 nm) ([1]; Table 5, sample 1747 (negative), peptide concentration 0.3 micrograms per milliliter, listed as Unbiotinylated HCV peptide II): 0.041
optical density (450 nm) ([1]; Table 5, sample 1747 (negative), peptide concentration 1.0 micrograms per milliliter, listed as Unbiotinylated HCV peptide II): 0.046
optical density (450 nm) ([1]; Table 5, sample 1747 (negative), peptide concentration 3.0 micrograms per milliliter, listed as Unbiotinylated HCV peptide II): 0.049
optical density (450 nm) ([1]; Table 5, sample 1781 (negative), peptide concentration 0.01 micrograms per milliliter, listed as Unbiotinylated HCV peptide II): 0.046
optical density (450 nm) ([1]; Table 5, sample 1781 (negative), peptide concentration 0.03 micrograms per milliliter, listed as Unbiotinylated HCV peptide II): 0.053
optical density (450 nm) ([1]; Table 5, sample 1781 (negative), peptide concentration 0.1 micrograms per milliliter, listed as Unbiotinylated HCV peptide II): 0.046
optical density (450 nm) ([1]; Table 5, sample 1781 (negative), peptide concentration 0.3 micrograms per milliliter, listed as Unbiotinylated HCV peptide II): 0.045
optical density (450 nm) ([1]; Table 5, sample 1781 (negative), peptide concentration 1.0 micrograms per milliliter, listed as Unbiotinylated HCV peptide II): 0.053
optical density (450 nm) ([1]; Table 5, sample 1781 (negative), peptide concentration 3.0 micrograms per milliliter, listed as Unbiotinylated HCV peptide II): 0.053
optical density (450 nm) ([2]; Table 4C, serum 8241, 20-fold dilution): 0.444
optical density (450 nm) ([2]; Table 4C, serum 8242, 20-fold dilution): 1.682
optical density (450 nm) ([2]; Table 4C, serum 8243, 20-fold dilution): 2.181
optical density (450 nm) ([2]; Table 4C, serum 8247, 20-fold dilution): 1.518
optical density (450 nm) ([2]; Table 4C, serum 8250, 20-fold dilution): 0.110
optical density (450 nm) ([2]; Table 4C, serum 8271, 20-fold dilution): 0.912
optical density (450 nm) ([2]; Table 4C, serum 8273, 20-fold dilution): 2.468
optical density (450 nm) ([2]; Table 4C, serum 8274, 20-fold dilution): 2.700
optical density (450 nm) ([2]; Table 4C, serum 8275, 20-fold dilution): 1.489
optical density (450 nm) ([2]; Table 4C, serum 8276, 20-fold dilution): 2.133
optical density (450 nm) ([2]; Table 4C, serum 8277, 20-fold dilution): 1.771
optical density (450 nm) ([2]; Table 4C, serum 8278, 20-fold dilution): 1.907
optical density (450 nm) ([2]; Table 5, sample 8242 (positive), peptide concentration 0.01 micrograms per milliliter, listed as Unbiotinylated HCV peptide II): 0.051
optical density (450 nm) ([2]; Table 5, sample 8242 (positive), peptide concentration 0.03 micrograms per milliliter, listed as Unbiotinylated HCV peptide II): 0.048
optical density (450 nm) ([2]; Table 5, sample 8242 (positive), peptide concentration 0.1 micrograms per milliliter, listed as Unbiotinylated HCV peptide II): 0.058
optical density (450 nm) ([2]; Table 5, sample 8242 (positive), peptide concentration 0.3 micrograms per milliliter, listed as Unbiotinylated HCV peptide II): 0.234
optical density (450 nm) ([2]; Table 5, sample 8242 (positive), peptide concentration 1.0 micrograms per milliliter, listed as Unbiotinylated HCV peptide II): 0.408
optical density (450 nm) ([2]; Table 5, sample 8242 (positive), peptide concentration 3.0 micrograms per milliliter, listed as Unbiotinylated HCV peptide II): 0.539
optical density (450 nm) ([2]; Table 5, sample 8243 (positive), peptide concentration 0.01 micrograms per milliliter, listed as Unbiotinylated HCV peptide II): 0.056
optical density (450 nm) ([2]; Table 5, sample 8243 (positive), peptide concentration 0.03 micrograms per milliliter, listed as Unbiotinylated HCV peptide II): 0.057
optical density (450 nm) ([2]; Table 5, sample 8243 (positive), peptide concentration 0.1 micrograms per milliliter, listed as Unbiotinylated HCV peptide II): 0.181
optical density (450 nm) ([2]; Table 5, sample 8243 (positive), peptide concentration 0.3 micrograms per milliliter, listed as Unbiotinylated HCV peptide II): 0.831
optical density (450 nm) ([2]; Table 5, sample 8243 (positive), peptide concentration 1.0 micrograms per milliliter, listed as Unbiotinylated HCV peptide II): 1.221
optical density (450 nm) ([2]; Table 5, sample 8243 (positive), peptide concentration 3.0 micrograms per milliliter, listed as Unbiotinylated HCV peptide II): 1.341
optical density (450 nm) ([2]; Table 5, sample 8318 (positive), peptide concentration 0.01 micrograms per milliliter, listed as Unbiotinylated HCV peptide II): 0.048
optical density (450 nm) ([2]; Table 5, sample 8318 (positive), peptide concentration 0.03 micrograms per milliliter, listed as Unbiotinylated HCV peptide II): 0.095
optical density (450 nm) ([2]; Table 5, sample 8318 (positive), peptide concentration 0.1 micrograms per milliliter, listed as Unbiotinylated HCV peptide II): 0.181
optical density (450 nm) ([2]; Table 5, sample 8318 (positive), peptide concentration 0.3 micrograms per milliliter, listed as Unbiotinylated HCV peptide II): 0.347
optical density (450 nm) ([2]; Table 5, sample 8318 (positive), peptide concentration 1.0 micrograms per milliliter, listed as Unbiotinylated HCV peptide II): 0.626
optical density (450 nm) ([2]; Table 5, sample 8318 (positive), peptide concentration 3.0 micrograms per milliliter, listed as Unbiotinylated HCV peptide II): 0.791
optical density (450 nm) ([2]; Table 5, sample 8320 (positive), peptide concentration 0.01 micrograms per milliliter, listed as Unbiotinylated HCV peptide II): 0.479
optical density (450 nm) ([2]; Table 5, sample 8320 (positive), peptide concentration 0.03 micrograms per milliliter, listed as Unbiotinylated HCV peptide II): 1.272
optical density (450 nm) ([2]; Table 5, sample 8320 (positive), peptide concentration 0.1 micrograms per milliliter, listed as Unbiotinylated HCV peptide II): 1.828
optical density (450 nm) ([2]; Table 5, sample 8320 (positive), peptide concentration 0.3 micrograms per milliliter, listed as Unbiotinylated HCV peptide II): 2.004
optical density (450 nm) ([2]; Table 5, sample 8320 (positive), peptide concentration 1.0 micrograms per milliliter, listed as Unbiotinylated HCV peptide II): 2.163
optical density (450 nm) ([2]; Table 5, sample 8320 (positive), peptide concentration 3.0 micrograms per milliliter, listed as Unbiotinylated HCV peptide II): 2.278
